The values below come from patent US7045617B2, “Bisbubstrate inhibitors of kinases” (priority 2000, dated 2006).

Where two headings read alike, the source gives them in different places. Where a SMILES comes first, the peptide text is derived from it. [ ]: non-standard residue; d: D form. The star is where a group is joined. X1 = Nc1ncnc2c1ncn2[C@@H]1O[C@H](COP(=O)(O)OP(=O)(O)OP(=O)(O)SCC(=O)*)[C@@H](O)[C@H]1O; Phe(4-NH2) = Nc1ccc(C[C@H](N)C(=O)O)cc1; Dap = NC[C@H](N)C(=O)O

The target of data set [1] is activated recombinant IRK (insulin receptor kinase) (Homo sapiens, UniProt P06213). The experiment in a line: Steady-state kinetic analysis of IRK inhibition (kinase assay). The following applies: for binding energy: binding to IRK. The format is biochemical. The protocol:
FIG. 2. […] Assays were carried out using activated recombinant IRK as described previously. 6 a, E/V vs. 1/ATP in the presence of varying. Conditions: fixed IRS727 concentration ([…]), 20 mM MgCl2, 0.5 mM DTT, 6 nM IRK, 0.05% bovine serum albumin, Tris-Acetate pH 7, 10 min reaction time. b, E/V vs. 1/IRS727 in the presence of varying. Conditions same as for a except fixed ATP ([…]), 8 nM IRK and 5 min reaction time.
v=Vm(S)/[Km(1+I/Ki)+S]; v=initial velocity, Vm=maximal velocity, S=substrate concentration, Km=Michaelis constant. […] Conditions: Incubation of […] +/−5 mM 2 for 10 min in reaction buffer (20 mM MgCl2, 0.5 mM DTT, 0.05% BSA, 50 mM Tris-Acetate, pH 7) then dilute 1:50 into reaction buffer containing 1 mM ATP and […] peptide6 IRS939 and measure conversion by HPLC at times shown. To determine koff, data were fit to the equation^17: […]
Assays were carried out using activated recombinant IRK as described previously^6. For E/V vs. 1/ATP plot the conditions were: […] IRS727 concentration, 20 mM MgCl2, 0.5 mM DTT, 6 nM IRK, 0.05% bovine serum albumin, 50 mM Tris-Acetate pH 7, 10 min reaction time. For E/V vs. 1/IRS727 in the conditions were the same except fixed ATP ([…]) was employed, 8 nM IRK and 5 min reaction time.
v=Vm(S)/[Km(1+I/Ki)+S]; v=initial velocity, Vm=maximal velocity, S=substrate concentration, Km=Michaelis constant.

A further data set has as its target Csk (Homo sapiens, UniProt P41240). The data set can be described thus: Inhibition of protein tyrosine kinase Csk. It is filed as biochemical. The following applies: read-out: Km (ATP). As to the method:
The specificity of inhibition was also tested by assaying 2 as an inhibitor of the protein tyrosine kinase Csk18. The peptide binding selectivity for Csk is quite different from IRK, and the IRS727 peptide moiety would be predicted to bind poorly to this enzyme^19. […] Thus the bisubstrate analog approach should allow for kinase selectivity based in part on peptide sequence.

In data set [2] the target is T1, recombinant mouse PKA (catalytic subunit) (Mus musculus, UniProt P05132).
T1 construct: purchased Calbiochem
The experiment in a line: PKA inhibition assay (Calbiochem kit, Dixon plot). It is filed as biochemical. The following applies: preliminary assays. The protocol: Reagents from Calbiochem's Protein Kinase A kit were used to perform the inhibition assays and recombinant mouse PKA (catalytic subunit) was also purchased from Calbiochem (enzyme concentration was established by Bradford analysis). A 0.76 mM stock solution of kemptide-ATPγS conjugate was prepared and used to make serial dilutions into an aqueous MgCl2 solution (53 mM), producing a range of inhibitor concentrations from 144 uM to 1.4 μM with Mg2+ concentration of 47.7 mM. These were further diluted into water to produce a range of inhibitor solutions between 51 μM and 507 nM. An 11.25 μL aliquot from each of these solutions was pre-incubated with 7.5 μL of a 1.75 nM PKA enzyme solution (750 ug/uL bovine serum albumin) for 10 minutes at 30° C. after which 12.5 μL of pre-incubation mix was added to 12.5 μL of reaction mix (30 μM cold ATP, 50 μM biotinylated kemptide substrate, 0.04 uCi/μL γP-32 ATP, 80 mM Tris-HCl, 10 mM MgCl2, pH 7.5) to initiate the enzymatic reaction. […] The columns were placed in scintillation vials and radioactivity was measured using a scintillation counter.

The nature of data set [3]: Stability of compound in aqueous solution. It is filed as physicochemical. From the text: The protected peptide was assembled using solid-phase peptide synthesis using Fmoc chemistry, in which the single tyrosine of IRS727 was replaced with commercially available nitrophenylalanine. The nitro group was reduced with SnCl2 and the aniline function was bromoacetylated via standard coupling conditions. The peptide was cleaved from the resin and deblocked with trifluoroacetic acid, water, and thioanisole and purified by reversed phase HPLC. […] The peptide-ATP conjugate 2 was purified by reversed phase HPLC and characterized by electrospray mass spectrometry and 1H NMR.

activated recombinant IRK (insulin receptor kinase), sequence (P06213 1005-1310 limits assumed): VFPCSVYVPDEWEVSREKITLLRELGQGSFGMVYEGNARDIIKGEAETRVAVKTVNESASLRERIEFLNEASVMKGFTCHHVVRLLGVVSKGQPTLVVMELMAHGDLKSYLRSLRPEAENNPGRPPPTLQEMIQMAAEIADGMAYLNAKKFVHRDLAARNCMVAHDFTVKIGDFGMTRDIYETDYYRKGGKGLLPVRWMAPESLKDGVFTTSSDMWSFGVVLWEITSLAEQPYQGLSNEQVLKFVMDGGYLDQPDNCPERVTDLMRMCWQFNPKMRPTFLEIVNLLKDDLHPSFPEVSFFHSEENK
Csk, sequence (P41240 whole entry, species assumed): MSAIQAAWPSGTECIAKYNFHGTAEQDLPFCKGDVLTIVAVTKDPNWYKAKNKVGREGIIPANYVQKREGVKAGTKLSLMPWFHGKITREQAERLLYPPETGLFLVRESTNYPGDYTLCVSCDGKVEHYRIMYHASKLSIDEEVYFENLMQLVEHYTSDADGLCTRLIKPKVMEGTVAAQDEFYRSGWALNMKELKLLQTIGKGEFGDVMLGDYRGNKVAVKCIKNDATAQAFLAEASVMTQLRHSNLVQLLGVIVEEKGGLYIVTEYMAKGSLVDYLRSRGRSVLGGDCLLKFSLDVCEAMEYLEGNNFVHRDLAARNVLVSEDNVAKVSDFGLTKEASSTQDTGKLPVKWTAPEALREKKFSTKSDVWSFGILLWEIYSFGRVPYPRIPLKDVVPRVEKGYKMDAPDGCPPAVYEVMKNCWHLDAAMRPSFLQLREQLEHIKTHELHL

In general, Ki refers to a measure of affinity in units of concentration, obtained from inhibition or displacement. As for `Nc1ncnc2c1ncn2[C@@H]1O[C@H](COP(=O)(O)OP(=O)(O)OP(=O)(O)SCC(=O)Nc2ccccc2)[C@@H](O)[C@H]1O` [Compound 3], in data set [1], the Ki was 114 µM, the “fold tighter binding than ATP-γS alone” value came out at 2 fold, the “fold weaker as an inhibitor than 2” value was “approximately 300 fold” and the “mode of inhibition of IRK” value was “linear competitive inhibitor of IRK versus ATP”.

One may read the Km as the substrate concentration at which the rate is half of its maximum. Regarding `Nc1ncnc2c1ncn2[C@@H]1O[C@H](COP(=O)(O)OP(=O)(O)OP(=O)(O)O)[C@@H](O)[C@H]1O` [ATP, reference compound], the Km at Csk came to 195 µM; in data set [1] (substrates of IRK, read-out: Km app) it was 71 µM.

On to `CC(=O)N[C@@H](CC(C)C)C(=O)N[C@@H](CCCNC(=N)N)C(=O)N[C@@H](CCCNC(=N)N)C(=O)N[C@@H](C)C(=O)N[C@@H](CNC(=O)CSP(=O)(O)OP(=O)(O)OP(=O)(O)OC[C@H]1O[C@@H](n2cnc3c(N)ncnc32)[C@H](O)[C@@H]1O)C(=O)N[C@@H](CC(C)C)C(=O)NCC(=O)O` [kemptide-ATPγS conjugate] (Ac-LRRA[Dap](X1)LG-OH), for which the “inhibition of PKA (in words)” value in data set [2] was “inhibitory to PKA”. Moreover, the inhibition constant (Ki) in data set [2] (reversible competitive inhibition model, read-out: calculated Ki versus ATP) is 9.6 µM.

As for “adenosine 5′-O-3-thiotriphosphate [ATPγS, reference compound]”, the binding energy in data set [1] amounted to 5.1 kcal/mol. The Ki in data set [1] (linear competitive versus ATP, read-out: Ki versus ATP) is 210 µM.

For orientation: half-life means the time needed for the level to fall by half in the phase considered. In the case of `CSCC[C@H](NC(=O)[C@H](Cc1ccc(NC(=O)CSP(=O)(O)OP(=O)(O)OP(=O)(O)OC[C@H]2O[C@@H](n3cnc4c(N)ncnc43)[C@H](O)[C@@H]2O)cc1)NC(=O)[C@H](CC(=O)O)NC(=O)CNC(=O)[C@@H](NC(=O)[C@H](C)NC(=O)[C@@H]1CCCN1C(=O)[C@H](CC(C)C)NC(=O)[C@H](CCCCN)NC(=O)[C@H](CCCCN)NC(=O)[C@H](CCCCN)NC(C)=O)[C@@H](C)O)C(=O)N[C@@H](CC(N)=O)C(=O)N[C@@H](CCSC)C(=O)N[C@@H](CO)C(=O)N1CCC[C@H]1C(=O)N[C@H](C(=O)NCC(=O)N[C@@H](CC(=O)O)C(=O)O)C(C)C` [Compound 2] (Ac-KKKLPATGD[Phe(4-NH2)](X1)MNMSPVGD-OH), the half-life in data set [3] (acidic solution (pH 2), read-out: half life of decomposition (converted)) was about 2 h. In data set [3] (frozen solution at −80° C. for several weeks), the storage stability entry is “without detectable decomposition”. The “time stable in aqueous solution” value in data set [3] (neutral pH, room temperature) was over 12 h. Besides, in data set [1], the “mode of inhibition of IRK” value is “linear competitive inhibitor versus both nucleotide (FIG. 2a) and peptide (FIG. 2b) substrates”; the binding energy stood at 8.9 kcal/mol.
